Source: ChEMBL document CHEMBL4190322, “Structure-based development of novel triazoles and related thiazolotriazoles as anticancer agents and Cdc25A/B phosphatase inhibitors. Synthesis, in vitro biological evaluation, molecular docking and in silico ADME-T studies” (Eur J Med Chem, 2017)
Active and inactive are the calls of the source. The calls are words filed in the database; no cut-off is given here.

What was measured:
SR = assay: Growth inhibition of human SR cells at 10 uM after 48 hrs by SRB assay relative to control; format: functional; conditions: read-out: GI
MOLT-4 = assay: Growth inhibition of human MOLT4 cells at 10 uM after 48 hrs by SRB assay relative to control; format: functional; conditions: MOLT-4, 48 h, read-out: GI
HT-29 = assay: Growth inhibition of human HT-29 cells at 10 uM after 48 hrs by SRB assay relative to control; format: functional; conditions: HT-29, 48 h, read-out: GI
UO-31 = assay: Growth inhibition of human UO31 cells at 10 uM after 48 hrs by SRB assay relative to control; format: functional; conditions: UO-31, 48 h, read-out: GI
HCT-116 = assay: Growth inhibition of human HCT116 cells at 10 uM after 48 hrs by SRB assay relative to control; format: functional; conditions: HCT-116, 48 h, read-out: GI
[1] = molecular target: T1, M-phase inducer phosphatase 2 (Homo sapiens, UniProt P30305); assay: Inhibition of human CDC25B using OMFP as substrate after 15 mins by fluorescence assay
T1 sequence (P30305 whole entry): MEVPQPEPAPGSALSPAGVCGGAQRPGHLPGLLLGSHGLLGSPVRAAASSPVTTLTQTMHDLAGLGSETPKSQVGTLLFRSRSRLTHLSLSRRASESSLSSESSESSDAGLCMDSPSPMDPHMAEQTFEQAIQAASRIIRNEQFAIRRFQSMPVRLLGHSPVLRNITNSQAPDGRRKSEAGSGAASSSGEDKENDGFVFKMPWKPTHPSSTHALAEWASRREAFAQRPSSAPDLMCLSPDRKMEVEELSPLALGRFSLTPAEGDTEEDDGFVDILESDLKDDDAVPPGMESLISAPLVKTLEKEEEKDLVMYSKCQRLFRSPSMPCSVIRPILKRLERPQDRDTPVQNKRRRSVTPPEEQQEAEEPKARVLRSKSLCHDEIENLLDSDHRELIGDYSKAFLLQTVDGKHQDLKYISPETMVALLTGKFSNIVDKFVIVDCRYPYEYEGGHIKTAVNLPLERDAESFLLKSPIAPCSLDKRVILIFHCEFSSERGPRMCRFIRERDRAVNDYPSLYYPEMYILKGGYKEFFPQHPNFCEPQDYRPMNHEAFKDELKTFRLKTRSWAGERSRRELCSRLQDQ

NCI-H23 = assay: Growth inhibition of human NCI-H23 cells at 10 uM after 48 hrs by SRB assay relative to control; format: functional; conditions: NCI-H23, 48 h, read-out: GI
HOP-62 = assay: Growth inhibition of human HOP62 cells at 10 uM after 48 hrs by SRB assay relative to control; format: functional; conditions: HOP-62, 48 h, read-out: GI
SK-MEL-2 = assay: Growth inhibition of human SK-MEL-2 cells at 10 uM after 48 hrs by SRB assay relative to control; format: functional; conditions: SK-MEL-2, 48 h, read-out: GI
RXF 393 = assay: Growth inhibition of human RXF393 cells at 10 uM after 48 hrs by SRB assay relative to control; format: functional; conditions: for inhibition of growth at 10 µM: RXF 393, 48 h, read-out: GI
CAKI-1 = assay: Growth inhibition of human Caki1 cells at 10 uM after 48 hrs by SRB assay relative to control; format: functional; conditions: CAKI-1, 48 h, read-out: GI
U-251 = assay: Growth inhibition of human U251 cells at 10 uM after 48 hrs by SRB assay relative to control; format: functional; conditions: U-251, 48 h, read-out: GI
A498 = assay: Growth inhibition of human A498 cells at 10 uM after 48 hrs by SRB assay relative to control; format: functional; conditions: A498, 48 h, read-out: GI
OVCAR-8 = assay: Growth inhibition of human OVCAR8 cells at 10 uM after 48 hrs by SRB assay relative to control; format: functional
Hs-578T = assay: Growth inhibition of human Hs 578T cells at 10 uM after 48 hrs by SRB assay relative to control; format: functional; conditions: for inhibition of growth at 10 µM: read-out: GI
786-0 = assay: Growth inhibition of human 786-0 cells at 10 uM after 48 hrs by SRB assay relative to control; format: functional; conditions: for inhibition of growth at 10 µM: 786-0, 48 h, read-out: GI
A549 = assay: Growth inhibition of human A549 cells at 10 uM after 48 hrs by SRB assay relative to control; format: functional; conditions: for inhibition of growth at 10 µM: A549, 48 h, read-out: GI
SNB-75 = assay: Growth inhibition of human SNB75 cells at 10 uM after 48 hrs by SRB assay relative to control; format: functional; conditions: SNB-75, 48 h, read-out: GI
MDA-MB-468 = assay: Growth inhibition of human MDA-MB-468 cells at 10 uM after 48 hrs by SRB assay relative to control; format: functional
NCI-H322M = assay: Growth inhibition of human NCI-H322M cells at 10 uM after 48 hrs by SRB assay relative to control; format: functional; conditions: read-out: GI
NCI-H522 = assay: Growth inhibition of human NCI-H522 cells at 10 uM after 48 hrs by SRB assay relative to control; format: functional; conditions: NCI-H522, 48 h, read-out: GI
Malme-3M = assay: Growth inhibition of human MALME-3M cells at 10 uM after 48 hrs by SRB assay relative to control; format: functional; conditions: read-out: GI
HL-60 = assay: Growth inhibition of human HL60 cells at 10 uM after 48 hrs by SRB assay relative to control; format: functional
OVCAR-4 = assay: Growth inhibition of human OVCAR4 cells at 10 uM after 48 hrs by SRB assay relative to control; format: functional; conditions: OVCAR-4, 48 h, read-out: GI
OVCAR-3 = assay: Growth inhibition of human OVCAR3 cells at 10 uM after 48 hrs by SRB assay relative to control; format: functional; conditions: for inhibition of growth at 10 µM: OVCAR-3, 48 h, read-out: GI
SF-268 = assay: Growth inhibition of human SF268 cells at 10 uM after 48 hrs by SRB assay relative to control; format: functional; conditions: SF-268, 48 h, read-out: GI
RPMI-8226 = assay: Growth inhibition of human RPMI8226 cells at 10 uM after 48 hrs by SRB assay relative to control; format: functional; conditions: RPMI-8226, 48 h, read-out: GI
SK-MEL-5 = assay: Growth inhibition of human SK-MEL-5 cells at 10 uM after 48 hrs by SRB assay relative to control; format: functional; conditions: SK-MEL-5, 48 h, read-out: GI
HOP-92 = assay: Growth inhibition of human HOP92 cells at 10 uM after 48 hrs by SRB assay relative to control; format: functional; conditions: HOP-92, 48 h, read-out: GI
SNB-19 = assay: Growth inhibition of human SNB19 cells at 10 uM after 48 hrs by SRB assay relative to control; format: functional; conditions: SNB-19, 48 h, read-out: GI
NCI-H226 = assay: Growth inhibition of human NCI-H226 cells at 10 uM after 48 hrs by SRB assay relative to control; format: functional; conditions: for inhibition of growth at 10 µM: NCI-H226, 48 h, read-out: GI
CCRF-CEM = assay: Growth inhibition of human CCRF-CEM cells at 10 uM after 48 hrs by SRB assay relative to control; format: functional; conditions: read-out: GI

Row | SMILES | inhibition of growth at 10 µM (SR) [%] | inhibition of growth at 10 µM (MOLT-4) [%] | inhibition of growth at 10 µM (HT-29) [%] | inhibition of growth at 10 µM (UO-31) [%] | inhibition of growth at 10 µM (HCT-116) [%] | IC50 [1] [µM] | inhibition of growth at 10 µM (NCI-H23) [%] | inhibition of growth at 10 µM (HOP-62) [%] | inhibition of growth at 10 µM (SK-MEL-2) [%] | inhibition of growth at 10 µM (CAKI-1) [%] | inhibition of growth at 10 µM (U-251) [%] | inhibition of growth at 10 µM (A498) [%] | inhibition of growth at 10 µM (SNB-75) [%] | inhibition of growth at 10 µM (NCI-H322M) [%] | inhibition of growth at 10 µM (NCI-H522) [%] | inhibition of growth at 10 µM (Malme-3M) [%] | growth inhibition (GI) (HL-60) | inhibition of growth at 10 µM (OVCAR-4) [%] | inhibition of growth at 10 µM (SF-268) [%] | inhibition of growth at 10 µM (RPMI-8226) [%] | further results
1 | COc1ccc(Cc2nnc(SCC(=O)Nc3ccc(Cl)cc3)n2-c2ccccc2)cc1 | 31.2 | 42.3 | 2.73 | 27.2 | 2 | 22.5 | 8.87 | 8.3 | 3.18 | 13.7 | 4.12 | 15.5 | 8.27 | 8.75 | 22.3 | 11.7 | inactive | 1.8 | 12.6 | 20.6 | inhibition of growth at 10 µM (RXF 393): 3.85%; growth inhibition (GI) (OVCAR-8): inactive; growth inhibition (GI) (Hs-578T): inactive; growth inhibition (GI) (786-0): inactive; growth inhibition (GI) (A549): inactive; growth inhibition (GI) (MDA-MB-468): inactive; growth inhibition (GI) (OVCAR-3): inactive; inhibition of growth at 10 µM (SK-MEL-5): 3.39%; inhibition of growth at 10 µM (HOP-92): 30%; inhibition of growth at 10 µM (SNB-19): 3%; growth inhibition (GI) (NCI-H226): inactive; inhibition of growth at 10 µM (CCRF-CEM): 21.4%
2 | COc1ccc(Cc2nnc(SCC(=O)Nc3ccc(Cl)cc3)n2Cc2ccccc2)cc1 | 25.7 | 36 | 10 | 31.7 | 11 | 8.4 | 9 | 12 | 17.2 | 21.4 | 5.5 | 16 | 4 | 14.5 | 29.3 | 5.6 | inactive | 11.8 | 12 | 22.5 | growth inhibition (GI) (RXF 393): inactive; growth inhibition (GI) (OVCAR-8): inactive; inhibition of growth at 10 µM (Hs-578T): 2.82%; inhibition of growth at 10 µM (786-0): 11.4%; inhibition of growth at 10 µM (A549): 1.05%; growth inhibition (GI) (MDA-MB-468): inactive; inhibition of growth at 10 µM (OVCAR-3): 3%; inhibition of growth at 10 µM (SK-MEL-5): 4.45%; inhibition of growth at 10 µM (HOP-92): 29.8%; inhibition of growth at 10 µM (SNB-19): 6.27%; inhibition of growth at 10 µM (NCI-H226): 4.45%; inhibition of growth at 10 µM (CCRF-CEM): 22.4%
3 | COc1ccc(Cc2nnc(SCC(=O)c3ccc(Cl)cc3)n2Cc2ccccc2)cc1 | 22.2 | 28.6 | 3 | 34.7 | 11.6 | 6.7 | 13.6 | 11.2 | 13 | 23.7 | 8.87 | 35.2 | 14.4 | 26 | 30 | 3 | inactive | 10 | 11.8 | 26.4 | inhibition of growth at 10 µM (RXF 393): 16%; inhibition of growth at 10 µM (OVCAR-8; OVCAR-8, 48 h, read-out: GI): 10%; inhibition of growth at 10 µM (Hs-578T): 20%; inhibition of growth at 10 µM (786-0): 3.19%; inhibition of growth at 10 µM (A549): 16.5%; inhibition of growth at 10 µM (MDA-MB-468; MDA-MB-468, 48 h, read-out: GI): 16%; inhibition of growth at 10 µM (OVCAR-3): 18.4%; inhibition of growth at 10 µM (SK-MEL-5): 5.52%; inhibition of growth at 10 µM (HOP-92): 39.3%; inhibition of growth at 10 µM (SNB-19): 9.2%; inhibition of growth at 10 µM (NCI-H226): 10%; inhibition of growth at 10 µM (CCRF-CEM): 20%
